Measurements taken from PubChem BioAssay (NCI).
Several values for one entry are separate records, joined by “and”; a condition that tells them apart may be missing. Equal values may be shown once.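 All cell lines were grown in 96-well plates and treated with compound for 48 hours. At the GI50, growth is halved. Definition used: TGI = concentration required for complete inhibition of growth.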

Experiments:
Experiment in all cases: DTP human tumour cell line panel, 48 h
SF-295 CNS = tested on: SF-295 CNS
SW-620 colon = tested on: SW-620 colon
COLO 205 colon = tested on: COLO 205 colon
SK-MEL-2 melanoma = tested on: SK-MEL-2 melanoma
MOLT-4 leukemia = tested on: MOLT-4 leukemia
HCC-2998 colon = tested on: HCC-2998 colon
MALME-3M melanoma = tested on: MALME-3M melanoma
NCI/ADR-RES ovarian = tested on: NCI/ADR-RES ovarian
MDA-MB-231 breast = tested on: MDA-MB-231 breast
NCI-H226 lung = tested on: NCI-H226 lung

Structure (SMILES) | GI50 (SF-295 CNS) [µM] | TGI (SF-295 CNS) | GI50 (SW-620 colon) | TGI (SW-620 colon) [µM] | GI50 (COLO 205 colon) [µM] | TGI (COLO 205 colon) | GI50 (SK-MEL-2 melanoma) | TGI (SK-MEL-2 melanoma) | GI50 (MOLT-4 leukemia) | TGI (MOLT-4 leukemia) | GI50 (HCC-2998 colon) [µM] | TGI (HCC-2998 colon) [µM] | GI50 (MALME-3M melanoma) | TGI (MALME-3M melanoma) | TGI (NCI/ADR-RES ovarian) [µM] | TGI (MDA-MB-231 breast) [µM] | GI50 (NCI/ADR-RES ovarian) [µM] | GI50 (MDA-MB-231 breast) [µM] | GI50 (NCI-H226 lung) [µM] | TGI (NCI-H226 lung)
CC(C)C(=O)[O-].CC(C)C(=O)[O-].N.N.N.N.[Co+3].[O-][Cl+3]([O-])([O-])[O-] | > 100 | > 100 µM | > 100 µM | > 100 | > 100 | > 100 µM | > 100 µM | > 100 µM | > 100 µM | > 100 µM | > 100 | > 100 | > 100 µM | > 100 µM | – | – | – | – | – | –
c1ccc(B2OCC(C3OB(c4ccccc4)OC4COB(c5ccccc5)OC43)O2)cc1 (configuration not stated) | – | > 100 µM | – | > 100 | – | > 100 µM | – | > 100 µM | – | > 100 µM | – | – | – | > 100 µM | > 100 | > 100 | – | – | – | –
N#Cc1ccc(Oc2cccc(Oc3ccccc3)c2)cc1C#N | – | > 100 µM | – | > 100 | > 100 | > 100 µM | – | > 100 µM | – | > 100 µM | > 100 | > 100 | > 100 µM | > 100 µM | – | – | – | – | – | –
CN(C)CCCCn1ccc2c1C(=O)c1c(c(O)c3ccccc3c1O)C2=O | 4.63 | 15.5 µM | – | – | 7.05 | 21 µM | – | – | – | – | – | – | – | – | 27.5 | 95.6 | 13.3 | 17 | 6.56 | 21.8 µM
Clc1cc(-c2ccccc2)nc2ccccc12 | – | > 100 µM | – | > 100 | – | 37.5 µM | – | 38 µM | – | 54.6 µM | – | – | – | > 100 µM | > 100 | > 100 | – | – | – | 92.9 µM
COc1ccc2c(CCNC(=O)/C=C/c3ccccc3)c(C(C)=O)[nH]c2c1[N+](=O)[O-] | – | 12.7 µM | – | > 100 | – | > 100 µM | – | > 100 µM | – | > 100 µM | – | > 100 | – | – | – | – | – | – | – | 46.7 µM
O=c1cccccc1[O-].O=c1cccccc1[O-].O=c1cccccc1[O-].[Ce+3] | – | 78.1 µM | – | > 100 | – | – | – | 51.6 µM | – | > 100 µM | – | > 100 | – | 52.4 µM | – | – | – | – | – | > 100 µM
COc1cc(/C=C\c2ccc(Br)cc2)cc(OC)c1OC | – | – | – | > 100 | – | 1.21 µM | – | > 100 µM | – | 0.326 µM | 0.0192 | 26.8 | – | 34.8 µM | – | – | – | – | – | –
NCc1c(C(N)=O)ncn1Cc1ccccc1 | – | > 100 µM | – | > 100 | – | > 100 µM | – | – | – | > 100 µM | – | > 100 | – | – | – | – | – | – | – | –
Fc1ccc2c(c1)C1=C(CO2)C(c2ccc(Cl)cc2)NC(=S)N1 (configuration not stated) | 15.6 | 47.3 µM | 27.3 µM | 93.8 | 31.3 | 90.9 µM | 24.3 µM | 46.9 µM | 39.5 µM | > 100 µM | – | – | – | – | 65.4 | 55.7 | 29.8 | 18.8 | – | –
O=C(Nc1nc2ccc([N+](=O)[O-])cc2s1)C(=O)C(C(=O)c1ccncc1)C1OC(=O)c2ccccc21 (configuration not stated) | – | – | – | > 100 | – | > 100 µM | – | – | – | > 100 µM | – | > 100 | – | > 100 µM | – | – | – | – | – | > 100 µM
CCn1c(=O)c2ccccc2n2c(=O)c3cc4ccccc4cc3nc12 | – | 80 µM | – | > 100 | – | > 100 µM | – | > 100 µM | – | > 100 µM | – | > 100 | – | > 100 µM | – | – | – | – | – | > 100 µM
CCOC(=O)N1C(c2ccccc2)C=CC(c2ccccc2)N1C(=O)OCC (configuration not stated) | – | > 100 µM | – | > 100 | – | > 100 µM | – | > 100 µM | – | – | – | – | – | > 100 µM | – | – | – | – | – | –
CCN(CC)c1ccc(N=C2C=C(Cl)C(=O)c3ncccc32)c(C)c1 | – | 35.9 µM | – | 17.3 | – | 15.8 µM | – | > 100 µM | – | 13.8 µM | – | – | – | 10.5 µM | – | – | – | – | – | –
CS(=O)(=O)N(CCC#N)c1ccc(C=O)cc1 | – | > 100 µM | – | > 100 | – | – | – | > 100 µM | – | > 100 µM | – | > 100 | – | > 100 µM | – | – | – | – | – | > 100 µM
CC(=O)[O-].[Zn].c1ccc(/C(=N\Nc2ccccn2)c2ccccn2)cc1 | 0.46 | 12.3 µM | 0.0319 µM | 1.63 | – | – | – | 10.6 µM | – | 0.227 µM | – | 2.07 | – | 1.58 µM | – | – | – | – | 0.212 | 0.962 µM and 5.73 µM
CC1[C@@H]2CC=C3[C@H]4CCC5Cc6nc7c(nc6C[C@@]5(C)C4(O)CC(=O)[C@]32CO[C@]12OC(C)(C)CC2O)CC1CC[C@@H]2C3=C[C@H]4O[C@@]5(O[C@@](C)(CO)C[C@@H]5O)C(C)[C@@]4(O)[C@]3(C)[C@@H](O)CC2[C@]1(C)C7 (some centres not stated) | < 0.00036 | 0.000131 µM and < 0.00036 µM | 0.000172 µM and 0.00119 µM | – | – | 0.00658 µM and 0.0644 µM | 0.00029 µM and 0.00117 µM | 0.0164 µM and 0.0294 µM | 0.00012 µM and 0.00036 µM | 0.000159 µM and 0.00114 µM | 0.321 | > 3.6 | 0.00298 µM and 0.00369 µM | 0.142 µM and 0.0292 µM | > 3.6 | – | – | – | – | –
CC(=O)OC1CCC2C(=CCC3C2(C)C(=O)CC2(C)C(C4(C)OC(C(C)C)=CC4=O)C(O)CC32C)C1(C)C (configuration not stated) | – | – | – | > 100 | – | > 100 µM | – | 62.3 µM | – | > 100 µM | – | – | – | 47.4 µM | – | – | – | – | – | > 100 µM
